Where a SMILES comes first, the peptide text is derived from it. Where no end group is shown, it is not given here. [ ]: non-standard residue; d: D form.
How the values were obtained:
[1] = test system: Mtb-secreted proteases (mc^2 6230 supernatant); conditions: proteolytic Mtb (mc^2 6230) supernatant, two weeks (0, 1, 7, 14 d), HPLC; n = 3 technical replicates
[2] = Human serum proteolytic stability; format: in vitro ADME; conditions: observed during serum proteolysis experiments, 25% v/v human serum
[3] = test system: hypoxia-induced NRP Mtb H37Ra; format: cell-based, M. tuberculosis
[4] = test system: nutrient-starved NRP Mtb H37Rv; assay: Kill curves with nutrient-starved non-replicating Mtb; format: cell-based, M. tuberculosis
[5] = test system: proliferating Mtb (H37Rv) cultures

Compound	Stability in the presence of Mtb-secreted proteases [1]	binding to human serum proteins [2]	activity under hypoxic conditions [3]	activity under nutrient starvation conditions [4]	incubation time at which regrowth of treated Mtb cultures was permitted [5]	reduction in the first week of exposure [5]
KRWHWWRRHWVVW-NH2 [MAD1]	completely proteolyzed after 14 days					
CC(C)[C@@H](NC(=O)[C@H](N)Cc1c[nH]c2ccccc12)C(=O)N[C@@H](C(=O)N[C@H](Cc1c[nH]c2ccccc12)C(=O)N[C@H](Cc1c[nH]cn1)C(=O)N[C@H](CCCNC(=N)N)C(=O)N[C@H](CCCNC(=N)N)C(=O)N[C@H](Cc1c[nH]c2ccccc12)C(=O)N[C@H](Cc1c[nH]c2ccccc12)C(=O)N[C@H](Cc1c[nH]cn1)C(=O)N[C@H](Cc1c[nH]c2ccccc12)C(=O)N[C@H](CCCNC(=N)N)C(=O)N[C@H](CCCCN)C(N)=O)C(C)C [MAD1-RI] (H-[dW][dV][dV][dW][dH][dR][dR][dW][dW][dH][dW][dR][dK]-NH2)	generally remained stable up to two weeks	significant binding				
NNC(=O)c1ccncc1 [INH, isoniazid, reference compound]			inactive	inactive	3 days	~ 2 log
